Data published in patent US20260015358A1, “BICYCLIC DERIVATIVES, COMPOSITIONS AND USES THEREOF” (Danatlas Pharmaceuticals Co., Ltd., priority 2023, published 2026).

Experiments:
[1] = molecular target: T1, WRN [UniPro: Q14191 (WRN_HUMAN), N500-C946] (Homo sapiens (Human), UniProt Q14191); test: WRN ATPase assay (ADP-Glo); assay type: biochemical; details: WRN enzymatic activity assay
[2] = molecular target: T1, WRN [UniPro: Q14191 (WRN_HUMAN), N500-C946]; test: WRN unwinding assay (FORKF DNA, fluorescence); assay type: biochemical; details: Table 14

T1 sequence (Q14191 500-946): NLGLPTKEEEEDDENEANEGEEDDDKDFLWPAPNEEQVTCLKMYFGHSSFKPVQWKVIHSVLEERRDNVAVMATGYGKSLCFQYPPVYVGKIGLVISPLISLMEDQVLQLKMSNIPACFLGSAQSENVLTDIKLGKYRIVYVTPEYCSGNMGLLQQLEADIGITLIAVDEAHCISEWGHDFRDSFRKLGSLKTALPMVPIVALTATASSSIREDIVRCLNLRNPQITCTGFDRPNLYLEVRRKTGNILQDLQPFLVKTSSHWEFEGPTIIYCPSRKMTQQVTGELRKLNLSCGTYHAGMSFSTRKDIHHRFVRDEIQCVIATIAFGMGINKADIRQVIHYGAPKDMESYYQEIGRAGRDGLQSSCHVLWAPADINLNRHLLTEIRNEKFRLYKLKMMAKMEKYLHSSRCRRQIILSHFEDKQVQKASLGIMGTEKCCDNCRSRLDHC

| SMILES | IC50 [1] [nM] | IC50 [2] [nM] |
| --- | --- | --- |
| CCc1c(N2CCN(C(=O)CNC(=O)c3ccncc3)CC2)c(=O)n2nc(C3=CCOCC3)nc2n1CC(=O)Nc1ccc(C(F)(F)F)cc1Cl [Example 96, N-(2-(4-(4-(2-((2-Chloro-4-(trifluoromethyl)phenyl)amino)-2-oxoethyl)-2-(3,6-dihydro-2H-pyran-4-yl)-5-ethyl-7-oxo-4,7-dihydro-[1,2,4]triazolo[1,5-a]pyrimidin-6-yl)piperazin-1-yl)-2-oxoethyl)isonicotinamide] | < 100 | < 100 |
| CCc1c(N2CCN(C(=O)CNC(=O)c3ccccc3F)CC2)c(=O)n2nc(C3=CCOCC3)nc2n1CC(=O)Nc1ccc(C(F)(F)F)cc1Cl [Example 97, N-(2-(4-(4-(2-((2-Chloro-4-(trifluoromethyl)phenyl)amino)-2-oxoethyl)-2-(3,6-dihydro-2H-pyran-4-yl)-5-ethyl-7-oxo-4,7-dihydro-[1,2,4]triazolo[1,5-a]pyrimidin-6-yl)piperazin-1-yl)-2-oxoethyl)-2-fluorobenzamide] | < 100 | < 100 |
| CCc1c(N2CCN(C(=O)CNC(=O)c3ccc(F)cc3)CC2)c(=O)n2nc(C3=CCOCC3)nc2n1CC(=O)Nc1ccc(C(F)(F)F)cc1Cl [Example 98, N-(2-(4-(4-(2-((2-Chloro-4-(trifluoromethyl)phenyl)amino)-2-oxoethyl)-2-(3,6-dihydro-2H-pyran-4-yl)-5-ethyl-7-oxo-4,7-dihydro-[1,2,4]triazolo[1,5-a]pyrimidin-6-yl)piperazin-1-yl)-2-oxoethyl)-4-fluorobenzamide] | < 100 | < 100 |
| CCc1c(N2CCN(C(=O)CNC(=O)c3cccc(F)c3)CC2)c(=O)n2nc(C3=CCOCC3)nc2n1CC(=O)Nc1ccc(C(F)(F)F)cc1Cl [Example 99, N-(2-(4-(4-(2-((2-Chloro-4-(trifluoromethyl)phenyl)amino)-2-oxoethyl)-2-(3,6-dihydro-2H-pyran-4-yl)-5-ethyl-7-oxo-4,7-dihydro-[1,2,4]triazolo[1,5-a]pyrimidin-6-yl)piperazin-1-yl)-2-oxoethyl)-3-fluorobenzamide] | < 100 | < 100 |
| CCc1c(N2CCN(C(=O)CNC(=O)c3nccs3)CC2)c(=O)n2nc(C3=CCOCC3)nc2n1CC(=O)Nc1ccc(C(F)(F)F)cc1Cl [Example 100, N-(2-(4-(4-(2-((2-Chloro-4-(trifluoromethyl)phenyl)amino)-2-oxoethyl)-2-(3,6-dihydro-2H-pyran-4-yl)-5-ethyl-7-oxo-4,7-dihydro-[1,2,4]triazolo[1,5-a]pyrimidin-6-yl)piperazin-1-yl)-2-oxoethyl)thiazole-2-carboxamide] | < 100 | < 100 |
| CCc1c(N2CCN(C(=O)CNC(=O)c3ccn[nH]3)CC2)c(=O)n2nc(C3=CCOCC3)nc2n1CC(=O)Nc1ccc(C(F)(F)F)cc1Cl [Example 101, N-(2-(4-(4-(2-((2-Chloro-4(trifluoromethyl)phenyl)amino)-2-oxoethyl)-2-(3,6-dihydro-2H-pyran-4-yl)-5-ethyl-7-oxo-4,7-dihydro-[1,2,4]triazolo[1,5-a]pyrimidin-6-yl)piperazin-1-yl)-2-oxoethyl)-1H-pyrazole-5-carboxamide] | < 100 | < 100 |
| CCc1c(N2CCN(C(=O)CNC(=O)c3ccn(C)n3)CC2)c(=O)n2nc(C3=CCOCC3)nc2n1CC(=O)Nc1ccc(C(F)(F)F)cc1Cl [Example 102, N-(2-(4-(4-(2-((2-Chloro-4-(trifluoromethyl)phenyl)amino)-2-oxoethyl)-2-(3,6-dihydro-2H-pyran-4-yl)-5-ethyl-7-oxo-4,7-dihydro-[1,2,4]triazolo[1,5-a]pyrimidin-6-yl)piperazin-1-yl)-2-oxoethyl)-1-methyl-1H-pyrazole-3-carboxamide] | < 100 | < 100 |
| CCc1c(N2CCN(C(=O)CNC(=O)c3cnn(C)c3)CC2)c(=O)n2nc(C3=CCOCC3)nc2n1CC(=O)Nc1ccc(C(F)(F)F)cc1Cl [Example 103, N-(2-(4-(4-(2-((2-Chloro-4-(trifluoromethyl)phenyl)amino)-2-oxoethyl)-2-(3,6-dihydro-2H-pyran-4-yl)-5-ethyl-7-oxo-4,7-dihydro-[1,2,4]triazolo[1,5-a]pyrimidin-6-yl)piperazin-1-yl)-2-oxoethyl)-1-methyl-1H-pyrazole-4-carboxamide] | < 100 | < 100 |
| CCc1c(N2CCN(C(=O)CNC(=O)c3cccc(Cl)c3Cl)CC2)c(=O)n2nc(C3=CCOCC3)nc2n1CC(=O)Nc1ccc(C(F)(F)F)cc1Cl [Example 104, 2,3-Dichloro-N-(2-(4-(4-(2-((2-chloro-4-(trifluoromethyl)phenyl)amino)-2-oxoethyl)-2-(3,6-dihydro-2H-pyran-4-yl)-5-ethyl-7-oxo-4,7-dihydro-[1,2,4]triazolo[1,5-a]pyrimidin-6-yl)piperazin-1-yl)-2-oxoethyl)benzamide] | 100 to 1000 | < 100 |
| CCc1c(N2CCN(C(=O)CNC(=O)c3csc(C)n3)CC2)c(=O)n2nc(C3=CCOCC3)nc2n1CC(=O)Nc1ccc(C(F)(F)F)cc1Cl [Example 105, N-(2-(4-(4-(2-((2-Chloro-4-(trifluoromethyl)phenyl)amino)-2-oxoethyl)-2-(3,6-dihydro-2H-pyran-4-yl)-5-ethyl-7-oxo-4,7-dihydro-[1,2,4]triazolo[1,5-a]pyrimidin-6-yl)piperazin-1-yl)-2-oxoethyl)-2-methylthiazole-4-carboxamide] | 100 to 1000 | < 100 |
| CCc1c(N2CCN(C(=O)CNC(=O)c3ncc[nH]3)CC2)c(=O)n2nc(C3=CCOCC3)nc2n1CC(=O)Nc1ccc(C(F)(F)F)cc1Cl [Example 106, N-(2-(4-(4-(2-((2-Chloro-4-(trifluoromethyl)phenyl)amino)-2-oxoethyl)-2-(3,6-dihydro-2H-pyran-4-yl)-5-ethyl-7-oxo-4,7-dihydro-[1,2,4]triazolo[1,5-a]pyrimidin-6-yl)piperazin-1-yl)-2-oxoethyl)-1H-imidazole-2-carboxamide] | 100 to 1000 | < 100 |
| CCc1c(N2CCN(C(=O)CNC(=O)c3cc(C)on3)CC2)c(=O)n2nc(C3=CCOCC3)nc2n1CC(=O)Nc1ccc(C(F)(F)F)cc1Cl [Example 107, N-(2-(4-(4-(2-((2-Chloro-4-(trifluoromethyl)phenyl)amino)-2-oxoethyl)-2-(3,6-dihydro-2H-pyran-4-yl)-5-ethyl-7-oxo-4,7-dihydro-[1,2,4]triazolo[1,5-a]pyrimidin-6-yl)piperazin-1-yl)-2-oxoethyl)-5-methylisoxazole-3-carboxamide] | < 100 | < 100 |
| CCc1c(N2CCN(C(=O)CNC(=O)c3c[nH][nH]c3=O)CC2)c(=O)n2nc(C3=CCOCC3)nc2n1CC(=O)Nc1ccc(C(F)(F)F)cc1Cl [Example 108, N-(2-(4-(4-(2-((2-Chloro-4-(trifluoromethyl)phenyl)amino)-2-oxoethyl)-2-(3,6-dihydro-2H-pyran-4-yl)-5-ethyl-7-oxo-4,7-dihydro-[1,2,4]triazolo[1,5-a]pyrimidin-6-yl)piperazin-1-yl)-2-oxoethyl)-3-oxo-2,3-dihydro-1H-pyrazole-4-carboxamide] | < 100 | < 100 |
| CCc1c(N2CCN(C(=O)CNC(=O)c3cnn4cccc4c3O)CC2)c(=O)n2nc(C3=CCOCC3)nc2n1CC(=O)Nc1ccc(C(F)(F)F)cc1Cl [Example 109, N-(2-(4-(4-(2-((2-Chloro-4-(trifluoromethyl)phenyl)amino)-2-oxoethyl)-2-(3,6-dihydro-2H-pyran-4-yl)-5-ethyl-7-oxo-4,7-dihydro-[1,2,4]triazolo[1,5-a]pyrimidin-6-yl)piperazin-1-yl)-2-oxoethyl)-4-hydroxypyrrolo[1,2-b]pyridazine-3-carboxamide] | < 100 | < 100 |
| CCc1c(N2CCN(C(=O)CNC(=O)c3cccnc3)CC2)c(=O)n2nc(C3=CCOCC3)nc2n1CC(=O)Nc1ccc(C(F)(F)F)cc1Cl [Example 110, N-(2-(4-(4-(2-((2-Chloro-4-(trifluoromethyl)phenyl)amino)-2-oxoethyl)-2-(3,6-dihydro-2H-pyran-4-yl)-5-ethyl-7-oxo-4,7-dihydro-[1,2,4]triazolo[1,5-a]pyrimidin-6-yl)piperazin-1-yl)-2-oxoethyl)nicotinamide] | < 100 | < 100 |
| CCc1c(N2CCN(C(=O)CNC(=O)c3ccccc3Cl)CC2)c(=O)n2nc(C3=CCOCC3)nc2n1CC(=O)Nc1ccc(C(F)(F)F)cc1Cl [Example 111, 2-Chloro-N-(2-(4-(4-(2-((2-chloro-4-(trifluoromethyl)phenyl)amino)-2-oxoethyl)-2-(3,6-dihydro-2H-pyran-4-yl)-5-ethyl-7-oxo-4,7-dihydro-[1,2,4]triazolo[1,5-a]pyrimidin-6-yl)piperazin-1-yl)-2-oxoethyl)benzamide] | < 100 | < 100 |
| CCc1c(N2CCN(C(=O)CNC(=O)c3ccccc3OC)CC2)c(=O)n2nc(C3=CCOCC3)nc2n1CC(=O)Nc1ccc(C(F)(F)F)cc1Cl [Example 112, N-(2-(4-(4-(2-((2-Chloro-4-(trifluoromethyl)phenyl)amino)-2-oxoethyl)-2-(3,6-dihydro-2H-pyran-4-yl)-5-ethyl-7-oxo-4,7-dihydro-[1,2,4]triazolo[1,5-a]pyrimidin-6-yl)piperazin-1-yl)-2-oxoethyl)-2-methoxybenzamide] | < 100 | < 100 |
| CCc1c(N2CCN(C(=O)CNC(=O)c3ccccc3Br)CC2)c(=O)n2nc(C3=CCOCC3)nc2n1CC(=O)Nc1ccc(C(F)(F)F)cc1Cl [Example 113, 2-Bromo-N-(2-(4-(4-(2-((2-chloro-4-(trifluoromethyl)phenyl)amino)-2-oxoethyl)-2-(3,6-dihydro-2H-pyran-4-yl)-5-ethyl-7-oxo-4,7-dihydro-[1,2,4]triazolo[1,5-a]pyrimidin-6-yl)piperazin-1-yl)-2-oxoethyl)benzamide] | < 100 | < 100 |
